# Measured values reported in ChEMBL document CHEMBL1201862, “PubChem BioAssay data set” (2004).
# Activity calls are given as the source filed them.
# Tests used:
# [1] = biological target: Eukaryotic translation initiation factor 4E (Mus musculus, UniProt P63073); assay: blockers of eIF4G binding by eIF4E – biochemical, TR-FRET, dose response (AID 855); assay type: functional;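 further: potency for disrupting eIF4E binding to eIF4GI seen as loss of FRET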
# [2] = biological target: T1, Calpain-2 catalytic subunit (Sus scrofa, UniProt P43367); assay: m-calpain protease blockers, concentration series – biochemical, fluorogenic peptide substrate, dose response (AID 1420); assay type: functional
# T1 sequence (P43367 whole entry): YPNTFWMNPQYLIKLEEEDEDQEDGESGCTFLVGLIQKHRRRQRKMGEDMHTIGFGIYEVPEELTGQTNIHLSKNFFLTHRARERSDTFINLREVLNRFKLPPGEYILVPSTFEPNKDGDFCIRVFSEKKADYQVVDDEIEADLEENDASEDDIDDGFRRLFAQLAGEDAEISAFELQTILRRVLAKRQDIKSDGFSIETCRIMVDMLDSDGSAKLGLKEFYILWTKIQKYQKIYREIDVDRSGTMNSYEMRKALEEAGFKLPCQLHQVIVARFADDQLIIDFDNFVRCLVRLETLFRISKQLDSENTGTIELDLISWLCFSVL
# [3] = NIH3T3 cell viability loss – ATP luminescence, mouse fibroblasts, counter-screen, dose response (AID 2010); assay type: functional, cell-based;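 further: cells exposed to compound for about 90 hours before reading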
# [4] = biological target: T2, Streptokinase A (Streptococcus pyogenes serotype M1, UniProt P10520); assay: viability-normalized secreted streptokinase activity reduction – plasminogen activation absorbance, OD405, dose response (AID 1914); assay type: functional, Streptococcus pyogenes M1 GAS;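 further: secreted streptokinase activity via plasminogen activation per viability signal from cell pellet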
# T2 sequence (P10520 whole entry): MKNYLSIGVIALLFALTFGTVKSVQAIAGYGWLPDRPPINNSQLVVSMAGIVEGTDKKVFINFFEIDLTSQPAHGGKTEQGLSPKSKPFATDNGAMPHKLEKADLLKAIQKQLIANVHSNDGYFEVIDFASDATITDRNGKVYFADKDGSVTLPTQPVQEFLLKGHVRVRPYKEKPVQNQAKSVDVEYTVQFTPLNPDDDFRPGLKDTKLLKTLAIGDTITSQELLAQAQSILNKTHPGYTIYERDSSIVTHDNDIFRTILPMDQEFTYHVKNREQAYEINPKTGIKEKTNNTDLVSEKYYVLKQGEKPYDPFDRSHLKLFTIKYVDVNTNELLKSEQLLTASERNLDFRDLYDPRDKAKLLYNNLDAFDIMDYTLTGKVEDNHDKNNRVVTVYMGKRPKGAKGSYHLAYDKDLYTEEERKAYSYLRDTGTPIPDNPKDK
# [5] = Trypanosoma cruzi growth suppression in host cells – NIH3T3 host cells, beta-gal luminescence, confirmation (AID 2044); assay type: functional, cell-based;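 further: intracellular parasites grown in NIH/3T3 mouse fibroblasts as host cells; luminescent beta-galactosidase reporter signal from transgenic T. cruzi replicating inside host cells; inhibitors lower the luminescence signal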
# [6] = tested on: Streptococcus; assay: GAS UMAA2166 growth inhibition – luminescence, BacTiterGlo, counter-screen for streptokinase expression inhibitor project, dose response (AID 1915); assay type: functional, organism-based;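 further: potency for reduction of bacterial viability or growth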
# [7] = tested on: Streptococcus sp. 'group A'; assay: Streptococcus pyogenes SK(-)GAS viability under kanamycin – luminescence, BacTiterGlo, confirmation, counter-screen for streptokinase expression inhibitor project, dose response (AID 1900); assay type: functional, organism-based
# [8] = viability loss in Vero cells – cytotoxicity control for Vif-APOBEC3G degradation inhibitor project, dose response (AID 1117358); assay type: functional; conditions: Vero
# [9] = biological target: Prothrombin (Homo sapiens, UniProt P00734); assay: Thrombin 1536 HTS Dose Response Confirmation. [Related pubchem assays: 1046 (Thrombin 1536 HTS; hits were confirmed in this assay)]; assay type: functional
# [10] = biological target: T3, Leucine aminopeptidase (Plasmodium falciparum 3D7, UniProt Q8IL11); assay: P. falciparum M17LAP inhibitors, primary screen, biochemical, fluorogenic H-Leu-NHMec substrate, 1536-well (AID 1619); assay type: functional
# T3 sequence (Q8IL11 whole entry): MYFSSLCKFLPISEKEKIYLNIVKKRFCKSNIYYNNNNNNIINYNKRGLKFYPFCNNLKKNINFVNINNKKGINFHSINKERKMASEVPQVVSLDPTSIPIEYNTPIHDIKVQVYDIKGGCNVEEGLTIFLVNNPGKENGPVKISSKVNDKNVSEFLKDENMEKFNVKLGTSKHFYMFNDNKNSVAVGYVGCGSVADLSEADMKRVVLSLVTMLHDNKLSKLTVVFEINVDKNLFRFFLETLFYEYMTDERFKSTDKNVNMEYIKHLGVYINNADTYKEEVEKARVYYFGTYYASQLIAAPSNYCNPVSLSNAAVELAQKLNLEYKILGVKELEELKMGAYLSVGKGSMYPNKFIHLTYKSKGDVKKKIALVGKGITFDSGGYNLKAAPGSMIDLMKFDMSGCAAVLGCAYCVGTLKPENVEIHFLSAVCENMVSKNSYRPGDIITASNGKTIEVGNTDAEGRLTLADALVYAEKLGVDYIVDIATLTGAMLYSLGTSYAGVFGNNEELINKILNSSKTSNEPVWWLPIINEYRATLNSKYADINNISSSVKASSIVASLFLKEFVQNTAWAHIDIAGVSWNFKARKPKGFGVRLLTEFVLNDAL
# [11] = Luminescence Cell-Based Dose Response HTS to Identify Activators of Luciferase Translation or Activity in H4 […] Cells. [Related pubchem assays: 1829 (Project Summary), 1814 (Primary HTS)]; assay type: functional
# [12] = tested on: H4; assay: Luminescence Cell-Based Dose Response HTS to Identify Activators of 5'UTR Stem-Loop Driven Prion Protein mRNA Translation in H4 Neuroglioblastoma Cells. [Related pubchem assays: 1829 (Project Summary), 1814 (Primary HTS)]; assay type: functional; conditions: Homo sapiens
# [13] = Luminescence Cell-Based Dose Confirmation HTS to Identify Activators of 5'UTR Stem-Loop Driven Alpha-Synuclein mRNA Translation in H4 Neuroglioblastoma Cells. [Related pubchem assays: 1829 (Project Summary), 1814 (Primary HTS)]; assay type: functional
# [14] = HPDE-C7 pancreatic duct cell viability loss – fluorescence, HTS (AID 430); assay type: functional, cell-based; conditions: Homo sapiens
# [15] = viability loss of HPDE-C7K cells – cell-based, fluorescence, HTS, primary screen (AID 431); assay type: functional; conditions: Homo sapiens
# [16] = biological target: DNA dC->dU-editing enzyme APOBEC-3G (Homo sapiens, UniProt Q9HC16); assay: Dose Response confirmation of small molecule APOBEC3G DNA Deaminase Inhibitors via a fluorescence-based single-stranded DNA deaminase assay. [Related pubchem assays (depositor defined):AID493012, AID493028]; assay type: functional
# [17] = biological target: Voltage-dependent T-type calcium channel subunit alpha-1H (Homo sapiens, UniProt O95180); assay type: functional;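 further: channel activity triggered by adding a high calcium stimulation buffer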
# [18] = A Cell Based Secondary Assay To Explore Cytotoxicity of Compounds that Sensitize Mycobacterium Tuberculosis to Beta-Lactam Antibiotics.; assay type: functional
# [19] = biological target: T4, CAAX prenyl protease 2 (Saccharomyces cerevisiae S288c, UniProt Q03530); assay type: biochemical
# T4 sequence (Q03530 whole entry): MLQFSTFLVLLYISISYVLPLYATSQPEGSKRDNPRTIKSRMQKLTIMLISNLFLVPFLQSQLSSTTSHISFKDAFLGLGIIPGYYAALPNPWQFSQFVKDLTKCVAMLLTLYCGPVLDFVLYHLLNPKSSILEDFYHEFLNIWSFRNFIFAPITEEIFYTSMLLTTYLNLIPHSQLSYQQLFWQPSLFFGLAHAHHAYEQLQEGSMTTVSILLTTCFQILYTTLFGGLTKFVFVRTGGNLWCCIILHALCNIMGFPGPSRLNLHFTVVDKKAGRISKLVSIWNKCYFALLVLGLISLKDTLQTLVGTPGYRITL
# [20] = biological target: Trypsin (Sus scrofa, UniProt P00761); assay: trypsin protease activity blockade – biochemical, quenched peptide fluorescence, cherry-pick, selectivity assay for Rce1 protease inhibitor project, dose response (AID 488789)
# Sequence of Trypsin (P00761 whole entry): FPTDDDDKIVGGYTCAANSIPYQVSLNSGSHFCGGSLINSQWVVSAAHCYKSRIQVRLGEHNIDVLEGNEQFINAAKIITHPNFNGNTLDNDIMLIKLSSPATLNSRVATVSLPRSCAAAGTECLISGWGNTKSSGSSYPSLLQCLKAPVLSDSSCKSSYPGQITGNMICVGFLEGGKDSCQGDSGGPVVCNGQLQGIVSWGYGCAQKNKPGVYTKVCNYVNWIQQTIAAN
# Sequence of Eukaryotic translation initiation factor 4E (P63073 whole entry): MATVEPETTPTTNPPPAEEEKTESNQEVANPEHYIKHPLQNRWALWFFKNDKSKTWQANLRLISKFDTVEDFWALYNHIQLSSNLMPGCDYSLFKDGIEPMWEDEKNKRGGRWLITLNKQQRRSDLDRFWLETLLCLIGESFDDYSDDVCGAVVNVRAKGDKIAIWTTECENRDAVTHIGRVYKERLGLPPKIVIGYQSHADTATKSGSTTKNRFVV
# Sequence of Voltage-dependent T-type calcium channel subunit alpha-1H (O95180 whole entry): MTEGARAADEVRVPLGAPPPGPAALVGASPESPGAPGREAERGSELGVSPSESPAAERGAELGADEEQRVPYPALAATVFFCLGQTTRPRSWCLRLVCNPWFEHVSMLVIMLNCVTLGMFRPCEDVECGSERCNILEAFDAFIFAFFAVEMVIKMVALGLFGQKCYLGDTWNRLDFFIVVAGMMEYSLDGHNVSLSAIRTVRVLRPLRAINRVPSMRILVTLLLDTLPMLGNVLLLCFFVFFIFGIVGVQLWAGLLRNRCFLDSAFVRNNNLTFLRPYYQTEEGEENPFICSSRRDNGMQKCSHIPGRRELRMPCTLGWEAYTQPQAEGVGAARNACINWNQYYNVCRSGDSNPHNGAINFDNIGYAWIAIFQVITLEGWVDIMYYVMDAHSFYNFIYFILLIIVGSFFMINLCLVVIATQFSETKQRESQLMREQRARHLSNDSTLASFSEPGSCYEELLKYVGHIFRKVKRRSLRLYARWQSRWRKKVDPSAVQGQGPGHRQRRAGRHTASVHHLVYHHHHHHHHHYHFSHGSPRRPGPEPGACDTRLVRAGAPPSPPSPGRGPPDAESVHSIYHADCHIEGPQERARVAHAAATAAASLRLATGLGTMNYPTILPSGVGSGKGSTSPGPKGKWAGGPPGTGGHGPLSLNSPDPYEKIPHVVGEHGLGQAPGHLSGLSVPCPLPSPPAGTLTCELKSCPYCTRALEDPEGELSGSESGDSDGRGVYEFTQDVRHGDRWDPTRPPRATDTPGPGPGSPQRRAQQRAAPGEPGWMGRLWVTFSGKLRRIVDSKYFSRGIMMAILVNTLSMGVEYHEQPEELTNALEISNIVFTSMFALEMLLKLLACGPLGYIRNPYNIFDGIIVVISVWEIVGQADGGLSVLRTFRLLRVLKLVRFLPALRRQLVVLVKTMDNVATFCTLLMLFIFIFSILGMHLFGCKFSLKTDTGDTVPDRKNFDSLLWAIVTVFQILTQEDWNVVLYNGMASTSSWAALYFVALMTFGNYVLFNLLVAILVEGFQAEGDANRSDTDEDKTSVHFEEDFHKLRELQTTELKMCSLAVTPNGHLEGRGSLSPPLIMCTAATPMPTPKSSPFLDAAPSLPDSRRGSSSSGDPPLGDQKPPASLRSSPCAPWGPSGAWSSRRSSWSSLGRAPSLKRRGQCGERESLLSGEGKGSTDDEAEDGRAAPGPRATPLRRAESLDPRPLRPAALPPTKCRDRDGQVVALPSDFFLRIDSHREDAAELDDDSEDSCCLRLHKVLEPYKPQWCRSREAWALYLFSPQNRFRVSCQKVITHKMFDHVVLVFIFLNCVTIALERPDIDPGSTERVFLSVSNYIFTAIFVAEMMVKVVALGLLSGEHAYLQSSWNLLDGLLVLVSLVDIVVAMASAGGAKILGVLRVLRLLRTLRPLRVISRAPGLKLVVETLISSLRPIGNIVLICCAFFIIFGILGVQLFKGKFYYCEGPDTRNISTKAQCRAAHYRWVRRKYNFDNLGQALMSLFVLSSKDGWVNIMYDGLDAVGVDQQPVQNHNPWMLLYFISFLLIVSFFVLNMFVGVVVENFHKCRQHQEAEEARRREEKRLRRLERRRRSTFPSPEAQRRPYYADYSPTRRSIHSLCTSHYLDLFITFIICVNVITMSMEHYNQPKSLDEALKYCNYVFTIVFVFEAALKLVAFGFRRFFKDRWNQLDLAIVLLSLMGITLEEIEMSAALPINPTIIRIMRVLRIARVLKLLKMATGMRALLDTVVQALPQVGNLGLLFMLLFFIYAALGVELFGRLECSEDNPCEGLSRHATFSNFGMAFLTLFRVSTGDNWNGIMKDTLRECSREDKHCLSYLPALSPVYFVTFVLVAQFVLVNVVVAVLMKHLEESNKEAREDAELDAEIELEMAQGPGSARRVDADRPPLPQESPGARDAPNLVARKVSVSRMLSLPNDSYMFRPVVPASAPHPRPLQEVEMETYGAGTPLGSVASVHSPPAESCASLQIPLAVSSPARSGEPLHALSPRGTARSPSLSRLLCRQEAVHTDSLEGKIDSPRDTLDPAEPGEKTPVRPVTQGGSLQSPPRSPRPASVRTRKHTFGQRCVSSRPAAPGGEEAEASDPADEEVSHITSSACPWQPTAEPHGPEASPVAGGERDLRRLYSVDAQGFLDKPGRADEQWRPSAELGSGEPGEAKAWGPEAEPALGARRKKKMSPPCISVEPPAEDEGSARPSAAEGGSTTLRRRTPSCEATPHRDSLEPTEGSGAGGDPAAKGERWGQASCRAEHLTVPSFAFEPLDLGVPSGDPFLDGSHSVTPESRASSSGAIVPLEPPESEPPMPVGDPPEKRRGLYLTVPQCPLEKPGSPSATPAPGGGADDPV
# Sequence of DNA dC->dU-editing enzyme APOBEC-3G (Q9HC16 whole entry): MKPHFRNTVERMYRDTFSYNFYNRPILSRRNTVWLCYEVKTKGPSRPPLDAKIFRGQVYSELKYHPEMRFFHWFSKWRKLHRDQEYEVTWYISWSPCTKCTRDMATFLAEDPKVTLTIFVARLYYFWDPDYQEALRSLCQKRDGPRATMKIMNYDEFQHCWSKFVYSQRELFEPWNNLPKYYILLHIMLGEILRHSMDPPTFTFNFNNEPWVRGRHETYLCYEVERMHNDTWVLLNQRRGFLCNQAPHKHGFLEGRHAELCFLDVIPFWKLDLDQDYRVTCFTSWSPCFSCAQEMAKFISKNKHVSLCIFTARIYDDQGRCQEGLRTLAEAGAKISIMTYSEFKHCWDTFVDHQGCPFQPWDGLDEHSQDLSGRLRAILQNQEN
structure (smiles),measurement,setting,value
CC(C)c1ccc(C(=O)NCc2ccc(Cl)cc2)cc1,IC50,[1],> 64 µM (inactive)
O=S(=O)(Nc1ccc(-c2csc(-c3ccccc3)n2)cc1)c1ccc(F)cc1,IC50,[2],8.02 µM (not active)
same,EC50,[3],> 60 µM (not active)
same,EC50,[4],8.48 µM (active)
same,EC50,[5],2.45 µM (active)
same,EC50,[6],5.63 µM (active)
same,EC50,[7],2.05 µM (active)
COC(=O)c1c(NC(=O)CC2NCCNC2=O)sc2c1CCCC2 (configuration not stated),CC50,[8],> 40 µM (active)
CC(=O)Nc1ccc(S(=O)(=O)n2cnc3cc(C)c(C)cc32)cc1,IC50,[9],> 50 µM (not active)
Cn1c(N)c(C(=O)COC(=O)c2ccc(Cl)c(S(=O)(=O)N3CCCCC3)c2)c(=O)n(C)c1=O,IC50,[2],29.2 µM (not active)
Cc1cc(N2CCCCC2)nc2ccc(NC(=O)c3ccc(Br)o3)cc12,IC50,[2],3.3 µM (not active)
CCOc1ccc(NC(=O)CSc2nc(N)c(-c3ccccc3)c(=O)[nH]2)cc1,IC50,[10],5.72 µM (active)
COc1cccc(-c2nn(C)c3sc(C(=O)Nc4ccc5c(c4)OCCO5)cc23)c1,EC50,[11],22.9 µM (active)
same,EC50,[12],> 120 µM (not active)
same,CC50,[8],> 40 µM (active)
same,EC50,[13],5.99 µM (active)
same,EC50,[4],> 150 µM (not active)
same,EC50,[6],13.9 µM (active)
same,EC50,[7],6.53 µM (active)
CN1CCN(C(=O)CSc2nc(-c3cccs3)cc(-c3cccs3)c2C#N)CC1,EC50,[14],10 µM (active)
same,EC50,[15],9.41 µM (active)
CCOc1ccc2nc(O)c(CN(Cc3ccco3)C(=O)c3ccc(Br)cc3)cc2c1,CC50,[8],32.4 µM (active)
COc1ccccc1NS(=O)(=O)c1cc(N)ccc1N1CCCCC1,IC50,[16],72.5 µM (active)
O=C(Nc1ccccc1)c1nnn(Cc2ccccc2)c1NC(=O)C(F)(F)F,EC50,[17],4.59 µM (active)
Cn1c(Cl)nc2c1c(=O)n(Cc1cccc(Br)c1)c(=O)n2C,IC50,[9],> 50 µM (not active)
Cn1c(SCC(=O)NCc2ccc3c(c2)OCO3)nnc1C1COc2ccccc2O1 (configuration not stated),IC50,[10],< 1 µM (active)
CCC(=O)Oc1ccc2c(C)c(Cl)c(=O)oc2c1,IC50,[9],> 50 µM (not active)
O=C(CCS(=O)(=O)c1cccs1)N1CCCC1,EC50,[11],> 120 µM (not active)
same,EC50,[12],17.8 µM (active)
same,EC50,[13],> 120 µM (not active)
same,IC50,[1],> 64 µM (inactive)
Cc1ccc(S(=O)(=O)c2nc(-c3ccccc3)oc2NCc2cccnc2)cc1,EC50,[17],8.55 µM (active)
Cc1c(C=O)c(C=O)c(C)n1Cc1ccccc1,CC50,[8],6.52 µM (active)
same,CC50,[18],4.47 µM (active)
CCc1cc(=O)oc2c3c(cc(OCC(=O)NCCCC(=O)O)c12)OC(C)(C)CC3,AC50,[19],12.1 µM (active)
same,AC50,[20],7.16 µM (active)
COc1ccc(-c2c(-c3ccsc3)oc3ccc(N4CCOCC4)cc23)cn1,AC50,[20],9.22 µM (active)
COc1cc(/C=N/NC(=O)C2c3ccccc3Oc3ccccc32)ccc1O,IC50,[1],> 64 µM (inactive)
O=C(NC1CCCCC1)N1CCS/C1=N\c1ccccc1,EC50,[17],7.51 µM (active)
CC1=NNC(=O)C1CCC(=O)N/N=C\c1ccc(Cl)c(Cl)c1 (configuration not stated),IC50,[10],15 µM (active)
Cc1ccc(/C=N/NC(=O)c2nnn(-c3nonc3N)c2C(C)C)o1,AC50,[19],2.96 µM (active)
C/C(=N\NC(=O)Cc1c(C)n[nH]c1O)c1ccc2ccccc2c1,IC50,[10],14 µM (active)
